In the supplement of paper PMC10307832:

Columns and labels:
Assay in all cases: relative viability (nuclei count vs DMSO), 5 days (fraction); higher = more cells survive
RERF-LC-KJ = tested on: RERF-LC-KJ
Outline: (§1)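 The day after seeding in 1536-well plates, lung cancer cell lines were treated by pin tool with a single drug, or with a fixed anchor-drug dose together with five library-drug doses (not always all listed) in √10 steps. After 5 days, a combined fix-and-stain solution (final 0.05% Triton X-100, 1% formaldehyde, 1 ug/ml Hoechst) was added. Nuclei counted on 4× images gave relative viability as treated counts over vehicle counts, reported as the median of duplicate plates.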

NCI-H460 = tested on: NCI-H460
Outline: as §1

NCI-H1355 = tested on: NCI-H1355
Outline: as §1

LU99A = tested on: LU99A
Outline: as §1

NCI-H1793 = tested on: NCI-H1793
Outline: as §1

EKVX = tested on: EKVX
Outline: as §1

NCI-H650 = tested on: NCI-H650
Outline: as §1

SW 1573 = tested on: SW 1573
Outline: as §1

LOU-NH91 = tested on: LOU-NH91
Outline: as §1

NCI-H1993 = tested on: NCI-H1993
Outline: as §1

NCI-H2347 = tested on: NCI-H2347
Outline: as §1

NCI-H23 = tested on: NCI-H23
Outline: as §1

NCI-H1650 = tested on: NCI-H1650
Outline: as §1

LC-2-ad = tested on: LC-2-ad
Outline: as §1

PC-3 [JPC-3] = tested on: PC-3 [JPC-3]
Outline: as §1

BEN = tested on: BEN
Outline: as §1

NCI-H2228 = tested on: NCI-H2228
Outline: as §1

NCI-H1666 = tested on: NCI-H1666
Outline: as §1

NCI-H838 = tested on: NCI-H838
Outline: as §1

LCLC-97TM1 = tested on: LCLC-97TM1
Outline: as §1

NCI-H1915 = tested on: NCI-H1915
Outline: as §1

NCI-H520 = tested on: NCI-H520
Outline: as §1

A-427 = tested on: A-427
Outline: as §1

Cc1cnc(-c2cnc(NCCNc3ccc(C#N)cn3)nc2-c2ccc(Cl)cc2Cl)[nH]1 + Nc1nc2[nH]cc(CCc3ccc(C(=O)N[C@@H](CCC(=O)O)C(=O)O)cc3)c2c(=O)[nH]1 [Pemetrexed] (partner 0.2 µM)
relative viability (RERF-LC-KJ; first compound 0.08 µM): 0.496
relative viability (RERF-LC-KJ; first compound 0.253 µM): 0.458
relative viability (RERF-LC-KJ; first compound 0.8 µM): 0.4
relative viability (RERF-LC-KJ; first compound 2.53 µM): 0.424
relative viability (NCI-H460; first compound 0.08 µM): 0.073
relative viability (NCI-H460; first compound 0.253 µM): 0.0754
relative viability (NCI-H460; first compound 0.8 µM): 0.0676
relative viability (NCI-H460; first compound 2.53 µM): 0.0722
relative viability (NCI-H1355; first compound 0.08 µM): 1.06
relative viability (NCI-H1355; first compound 0.253 µM): 0.907
relative viability (NCI-H1355; first compound 0.8 µM): 0.991
relative viability (NCI-H1355; first compound 2.53 µM): 0.915
relative viability (LU99A; first compound 0.08 µM): 0.177
relative viability (LU99A; first compound 0.253 µM): 0.201
relative viability (LU99A; first compound 0.8 µM): 0.191
relative viability (LU99A; first compound 2.53 µM): 0.198
relative viability (NCI-H1793; first compound 0.08 µM): 1.04
relative viability (NCI-H1793; first compound 0.253 µM): 0.839
relative viability (NCI-H1793; first compound 0.8 µM): 0.794
relative viability (NCI-H1793; first compound 2.53 µM): 1.14
relative viability (EKVX; first compound 0.08 µM): 0.455
relative viability (EKVX; first compound 0.253 µM): 0.358
relative viability (EKVX; first compound 0.8 µM): 0.339
relative viability (NCI-H650; first compound 0.08 µM): 0.915
relative viability (NCI-H650; first compound 0.253 µM): 0.92
relative viability (NCI-H650; first compound 0.8 µM): 0.934
relative viability (NCI-H650; first compound 2.53 µM): 0.904
relative viability (SW 1573; first compound 0.08 µM): 1.06
relative viability (SW 1573; first compound 0.253 µM): 0.797
relative viability (SW 1573; first compound 0.8 µM): 0.551
relative viability (SW 1573; first compound 2.53 µM): 0.364
relative viability (LOU-NH91; first compound 0.08 µM): 0.376
relative viability (LOU-NH91; first compound 0.253 µM): 0.383
relative viability (LOU-NH91; first compound 0.8 µM): 0.399
relative viability (LOU-NH91; first compound 2.53 µM): 0.349
relative viability (NCI-H1993; first compound 0.08 µM): 0.6
relative viability (NCI-H1993; first compound 0.253 µM): 0.512
relative viability (NCI-H1993; first compound 0.8 µM): 0.535
relative viability (NCI-H1993; first compound 2.53 µM): 0.519
relative viability (NCI-H2347; first compound 0.08 µM): 0.44
relative viability (NCI-H2347; first compound 0.253 µM): 0.42
relative viability (NCI-H2347; first compound 0.8 µM): 0.398
relative viability (NCI-H2347; first compound 2.53 µM): 0.431
relative viability (NCI-H23; first compound 0.08 µM): 0.667
relative viability (NCI-H23; first compound 0.253 µM): 0.634
relative viability (NCI-H23; first compound 0.8 µM): 0.486
relative viability (NCI-H23; first compound 2.53 µM): 0.438
relative viability (NCI-H1650; first compound 0.08 µM): 0.356
relative viability (NCI-H1650; first compound 0.253 µM): 0.361
relative viability (NCI-H1650; first compound 0.8 µM): 0.315
relative viability (NCI-H1650; first compound 2.53 µM): 0.289
relative viability (LC-2-ad; first compound 0.08 µM): 0.276
relative viability (LC-2-ad; first compound 0.8 µM): 0.252
relative viability (LC-2-ad; first compound 2.53 µM): 0.247
relative viability (PC-3 [JPC-3]; first compound 0.08 µM): 1.08
relative viability (PC-3 [JPC-3]; first compound 0.253 µM): 1.02
relative viability (PC-3 [JPC-3]; first compound 0.8 µM): 1.12
relative viability (PC-3 [JPC-3]; first compound 2.53 µM): 0.969
relative viability (BEN; first compound 0.08 µM): 0.787
relative viability (BEN; first compound 0.253 µM): 0.751
relative viability (BEN; first compound 0.8 µM): 0.771
relative viability (BEN; first compound 2.53 µM): 0.802
relative viability (NCI-H2228; first compound 0.08 µM): 0.36
relative viability (NCI-H2228; first compound 0.8 µM): 0.386
relative viability (NCI-H2228; first compound 2.53 µM): 0.288
relative viability (NCI-H1666; first compound 0.08 µM): 0.91
relative viability (NCI-H1666; first compound 0.253 µM): 0.824
relative viability (NCI-H1666; first compound 0.8 µM): 0.843
relative viability (NCI-H1666; first compound 2.53 µM): 0.747
relative viability (NCI-H838; first compound 0.08 µM): 0.249
relative viability (NCI-H838; first compound 0.253 µM): 0.247
relative viability (NCI-H838; first compound 0.8 µM): 0.236
relative viability (NCI-H838; first compound 2.53 µM): 0.243
relative viability (LCLC-97TM1; first compound 0.08 µM): 0.176
relative viability (LCLC-97TM1; first compound 0.253 µM): 0.183
relative viability (LCLC-97TM1; first compound 0.8 µM): 0.173
relative viability (LCLC-97TM1; first compound 2.53 µM): 0.188
relative viability (NCI-H1915; first compound 0.08 µM): 0.49
relative viability (NCI-H1915; first compound 0.8 µM): 0.438
relative viability (NCI-H1915; first compound 2.53 µM): 0.398
relative viability (NCI-H520; first compound 0.08 µM): 0.729
relative viability (NCI-H520; first compound 0.253 µM): 0.727
relative viability (NCI-H520; first compound 0.8 µM): 0.74
relative viability (NCI-H520; first compound 2.53 µM): 0.492
relative viability (A-427; first compound 0.08 µM): 0.981
relative viability (A-427; first compound 0.253 µM): 0.901
relative viability (A-427; first compound 0.8 µM): 0.928
relative viability (A-427; first compound 2.53 µM): 0.927
